# Measurements reported in patent US5641805A, “Topical ophthalmic formulations for treating allergic eye diseases” (Alcon Laboratories, Inc., priority 1995, dated 1997).
# What was measured:
# [1] = tested on: Human Conjunctival Tissue Mast Cells; assay: Compound effect on histamine release from human conjunctival tissue mast cells upon anti-human IgE challenge; assay type: cell-based; details: for inhibition at 500 µM: * p < 0.05 Dunnett's, isomers not significantly different (p > 0.05 Studentized Range), read-out: Inhibition (%) of in-vitro histamine release, isomer comparison; for inhibition of human conjunctival mast cell degranulation: statement on Table 1
# Protocol: The inhibitory effects of reported anti-allergic, mast cell stabilizing drugs on mast cells obtained from human conjunctiva (the target cells for topical ophthalmic drug preparations claimed useful in treating allergic conjunctivitis) were tested according to the following experimental method. Human conjunctival tissues obtained from organ/tissue donors were weighed and transferred to petri dishes containing RPMI 1640 culture medium supplemented with heat inactivated fetal bovine serum (20%, v/v), L-glutamine (2 mM), penicillin (100 units/ml), streptomycin (100 μg/ml), amphotericin B (2.5 μg/ml) and HEPES (10 mM) and equilibrated overnight at 37° C. (5% CO2).
# Post equilibration, tissues were placed in Tyrode's buffer (in mM: 137 NaCl, 2.7 KCl, 0.35 Na H2 PO4, 1.8 CaCl2, 0.98 MgCl2, 11.9 Na HCO3, 5.5 glucose) containing 0.1% gelatin (TGCM) and incubated with 200 U each of collagenase (Type IV) and hyaluronidase (Type I-S) per gram of tissue for 30 minutes at 37° C. Following enzyme digestion, tissues were washed with an equal volume of TGCM over Nitex® filter cloth (Tetko, Briarcliff Manor, N.Y.). Intact tissues were placed in TGCM for further enzymatic digestions.
# The flitrate obtained from each digestion was centrifuged (825 g, 7 minutes) and pelleted cells were resuspended in calcium/magnesium free Tyrode's buffer (TG). Pooled cells from all digestions were centrifuged (825 g, 30 minutes) over a […] Percoll® cushion. Mast cell enriched cell pellets were resuspended and washed in TG buffer. Viability and number of mast cells were determined by vital dye exclusion and toluidine blue 0 staining of the harvested cell suspensions. Mast cell containing preparations were placed in supplemented RPMI 1640 culture medium and allowed to equilibrate at 37° C. prior to challenge with anti-human IgE (goat derived IgG antibody).
# Cell suspensions containing 5000 mast cells were added to TGCM containing tubes and challenged with anti-human IgE. The final volume of each reaction tube was 1.0 mL. Tubes were incubated at 37° C. for 15 minutes post challenge. The release reaction was terminated by centrifugation (500 g, 7 minutes). Supernatants were collected and stored (-20° C.) until mediator analyses.
# Initially, supernatants were analyzed for histamine content by both the automated fluorimetric method described by Siraganian, "An Automated Continuous Flow System for the Extraction and Fluorometric Analysis of Histamine," Anal. Biochem., Vol. 57, 383-94 (1974), and a commercially available radioimmunoassay (RIA) system (AMAC, Inc., Westbrook, Me.). Results from these assays were positively correlated (r=0.999): therefore, the remainder of histamine analyses were performed by RIA.
# Each experiment included an anti-human IgE (plus vehicle) positive release control, a spontaneous/vehicle release and a total histamine release control. Total histamine release was determined by treatment with Triton X-100® (0.1%). The experiments also included a non-specific goat IgG control. Test compounds are administered to the mast cell cultures either 1 or 15 minutes before stimulation with anti-human IgE. Inhibition of histamine release resulting from challenge of drug treated mast cells was determined by direct comparison with histamine release from vehicle treated, anti-IgE challenged mast cells using Dunnett's t-test (Dunnett, "A multiple comparison procedure for comparing treatments with a control, " J. Amer. Stat Assoc., Vol. 50, 1096-1121 (1955)).
# Dunnett's t-test, is a statistical test which compares multiple treatment groups with one control group. In the assay described above, histamine released from drug treated mast cells are compared to histamine released from the anti-human IgE plus vehicle treated mast cells which serve as the positive control. Statistically significant inhibition is determined using this procedure. The probability level of 0.05 is accepted as the level of significance in biomedical research. […]
# rat conjunctiva = details: 0.1 % strength
# Excerpt: This assay indicates whether a topically applied compound effectively prevents or decreases the local allergic response in the conjunctiva. This assay allows an assessment of bioavailability following topical dosing. Briefly, male Sprague Dawley rats (6/group) were passively sensitized by subconjunctival injection of a rat serum containing IgE specific for ovalbumin (OA). Twenty-four hours post sensitization, test compound prepared in saline (0.9% NaCl) or saline vehicle was applied topically onto the sensitized eye. Twenty (20) minutes after dosing, rats were challenged intravenously via the lateral tail vein with 1.0 ml of a solution containing OA (1.0 mg/ml) and Evans Blue dye (2.5 mg/ml). Thirty (30) minutes post antigen challenge, animals were killed, skin was reflected, and the size of the resulting wheal and the intensity of the extravasated dye were determined.
# rodent mast cell = details: cited from earlier work
# human skin mast cells = details: cited from earlier work
# [2] = tested on: mast cells obtained from bronchoalveolar lavage fluid; details: 100 μM; cited from earlier work
# [3] = Homo sapiens, Mast cell, 0.25 h, treatment 15 min
# [4] = Homo sapiens, Mast cell, 0.25 h, treatment 15 min, * p < 0.05 Dunnett's t-test
# [5] = Homo sapiens, Mast cell, 1 min, treatment 1 min
smiles,measurement,setting,value
"CN(C)CC/C=C1/c2ccccc2COc2ccc(CC(=O)O)cc21 [Compound A (cis), Z-11-(3-dimethylaminopropylidene)-6,11-dihydrodibenz[b,e]oxepin-2-acetic acid]",inhibition at 500 µM,[1]; [3],29.7%
same,inhibition of human conjunctival mast cell degranulation,[1],concentration-dependent inhibition of mast cell degranulation
"CN(C)CC/C=C1\c2ccccc2COc2ccc(CC(=O)O)cc21 [Compound A (trans), E-11-(3-dimethylaminopropylidene)-6,11-dihydrodibenz[b,e]oxepin-2-acetic acid]",inhibition at 500 µM,[1]; [3],26.2%
"CN(C)CC/C=C1/c2ccccc2COc2ccc(CC(=O)O)cc21 [Compound A, 11-(3-dimethylaminopropylidene)-6,11-dihydrodibenz[b,e]oxepin-2-acetic acid]",inhibition at 30 µM,[1]; [3],-3.9%
same,inhibition at 100 µM,[1]; [4],13%
same,inhibition at 300 µM,[1]; [4],29.6%
same,inhibition at 600 µM,"[1]; Homo sapiens, Mast cell, 0.25 h, 600 μM, treatment 15 min, * p < 0.05 Dunnett's t-test",47.5%
same,inhibition at 1000 µM,[1]; [4],66.7%
same,inhibition at 2000 µM,"[1]; Mast cell, 2000 μM, treatment 15 min before anti-human IgE, * p < 0.05 Dunnett's t-test",92.6%
"CN(C)CC/C=C1/c2ccccc2COc2ccc(C(=O)O)cc21 [Compound B, (Z)11-(3-Dimethylaminopropylidene)-6,11-dihydrodibenz[b,e]oxepin2-carboxylic acid]",% Change (permeability score),rat conjunctiva,-55%
"CN(C)CCC=C1c2ccccc2COc2ccc(/C=C\C(=O)O)cc21 [Compound C, (Z)11-(3-Dimethylaminopropylidene)-6,11-dihydrodibenz[b,e]oxepin2-acrylic acid]",% Change (permeability score),rat conjunctiva,-53%
O=C(O)c1cc(=O)c2c(OCC(O)COc3cccc4oc(C(=O)O)cc(=O)c34)cccc2o1 [Cromolyn sodium],inhibition of rodent mast cell degranulation,rodent mast cell,inhibit rodent mast cell degranulation
same,inhibition at 10 µM,[1]; [5],-0.9%
same,inhibition at 30 µM,[1]; [5],0.1%
same,inhibition at 100 µM,[1]; [5],1.2%
same,inhibition at 300 µM,[1]; [5],-1.8%
same,inhibition at 1000 µM,[1]; [5],-9.4%
same,inhibition at 10 µM,[1]; [3],10.6%
same,inhibition at 30 µM,[1]; [3],1.8%
same,inhibition at 100 µM,[1]; [4],-1.2%
same,inhibition at 300 µM,[1]; [4],-6.9%
same,inhibition at 1000 µM,[1]; [4],-15.4%
same,inhibition of human conjunctival mast cell degranulation,[1],failed to significantly inhibit human conjunctival mast cell degranulation
same,inhibition of histamine release from human skin mast cells,human skin mast cells,not inhibited at all
same,inhibition of mast cells from bronchoalveolar lavage fluid,[2],inhibited
CCCc1c2oc(C(=O)O)cc(=O)c2cc2c(=O)cc(C(=O)O)n(CC)c12 [Nedocromil sodium],inhibition at 0.1 µM,[1]; [5],17.4%
same,inhibition at 0.3 µM,[1]; [5],8.8%
same,inhibition at 1 µM,[1]; [5],4.8%
same,inhibition at 3 µM,[1]; [5],0.8%
same,inhibition at 10 µM,[1]; [5],-6.5%
same,inhibition at 30 µM,[1]; [5],-0.9%
same,inhibition at 100 µM,[1]; [5],6.7%
same,inhibition at 300 µM,[1]; [5],4%
same,inhibition at 1000 µM,[1]; [5],-1.1%
same,inhibition at 0.1 µM,[1]; [3],8.7%
same,inhibition at 0.3 µM,[1]; [3],3.7%
same,inhibition at 1 µM,[1]; [3],10.7%
same,inhibition at 3 µM,[1]; [3],13.2%
same,inhibition at 10 µM,[1]; [3],9.2%
same,inhibition at 30 µM,[1]; [3],15.2%
same,inhibition at 100 µM,[1]; [4],28.2%
same,inhibition at 300 µM,[1]; [4],11.3%
same,inhibition at 1000 µM,[1]; [4],7.2%
same,inhibition of human conjunctival mast cell degranulation,[1],failed to significantly inhibit human conjunctival mast cell degranulation
